Values after ≈ are worked out from the molar mass of the structure shown. Like-named read-outs stand apart in the source and are kept apart here.
Tests used:
[1] = test system: Sindbis virus; experiment: Antiviral activity, Sindbis virus; type: cell-based; conditions: Table 3, reference compounds
[2] = test system: Coxsackie virus B4; experiment: microbe, parasite or virus in culture; type: cell-based; conditions: Table 3, reference compounds
[3] = test system: Punta Toro virus; experiment: Antiviral activity, Punta Toro virus; type: cell-based; conditions: Table 3, reference compounds
[4] = test system: Para-influenza-3 virus; experiment: Antiviral activity, Para-influenza-3 virus; type: cell-based; conditions: Table 3, reference compounds
[5] = test system: Reovirus-1; experiment: Antiviral activity, Reovirus-1; type: cell-based; conditions: Table 3, reference compounds
[6] = test system: Herpes simplex virus-1 (KOS); experiment: Antiviral activity, Herpes simplex virus-1 (KOS); type: cell-based; conditions: Human alphaherpesvirus 1; Table 4, reference compounds
[7] = test system: Herpes simples virus-2 (G); experiment: Antiviral activity, Herpes simplex virus-2 (G); type: cell-based; conditions: Human alphaherpesvirus 2; Table 4, reference compounds
[8] = test system: Vaccinia virus; experiment: microbe, parasite or virus in culture; type: cell-based; conditions: Orthopoxvirus vaccinia, read-out: EC50 Vaccinia virus
[9] = test system: Vesicular stomatitis virus; experiment: microbe, parasite or virus in culture; type: cell-based; conditions: read-out: EC50 Vesicular stomatitis virus
[10] = test system: Herpes simplex virus-1 TK KOS-ACV^r; experiment: Antiviral activity, Herpes simplex virus-1 TK KOS-ACVr; type: cell-based; conditions: Human alphaherpesvirus 1, read-out: EC50 Herpes simplex virus-1 TK KOS-ACV^r
[11] = test system: Feline Corona virus; experiment: Activity on feline corona virus in CRFK cells; type: cell-based
[12] = test system: human corona (SARS) virus; experiment: microbe, parasite or virus in culture; type: cell-based; conditions: Severe acute respiratory syndrome coronavirus, read-out: Human Corona virus EC50
[13] = in vitro; conditions: human, CEM cells
[14] = test system: HIV-2; experiment: Antiretrovirus assay, HIV-2; conditions: Human immunodeficiency virus 2, read-out: EC50 HIV-2
[15] = test system: HIV-1; experiment: microbe, parasite or virus in culture; conditions: Human immunodeficiency virus 1, CCRF-CEM, read-out: EC50 HIV-1
[16] = test system: Influenza A H1N1 subtype; experiment: Anti-influenza activity in MDCK cells, Influenza A H1N1; type: cell-based; conditions: Influenza A virus, reference compounds
Source text: (§1) MDCK cells (Madin Darby canine kidney cells) have been used for the experiments shown in table 5 using standard procedures known in the art.

[17] = test system: Influenza A H3N2 subtype; experiment: Anti-influenza activity in MDCK cells, Influenza A H3N2; type: cell-based; conditions: Influenza A virus, reference compounds
Source text: as §1

Row | Compound | EC50 [4] [µM] | EC50 [5] [µM] | EC50 ([1]; Sindbis virus) [µM] | EC50 ([2]; Enterovirus B, B4) [µM] | EC50 ([3]; Punta Toro virus) [µM] | EC50 [6] [µM] | EC50 [7] [µM] | EC50 [8] [µM] | EC50 [9] [µM] | EC50 [10] [µM] | EC50 [11] [µg/mL] | EC50 [12] [µg/mL] | melting point [°C] | CC50 [13] [µg/mL] | EC50 [14] [µg/mL] | EC50 [15] [µg/mL] | also measured
1 | Nc1ncnc2c1ncn2C[C@H](O)CO [(S)-DHPA] | – | – | – | – | – | – | – | – | – | – | – | – | – | – | – | – | EC50 [1]: > 250 µM; EC50 [2]: > 250 µM; EC50 [3]: > 250 µM
2 | O=c1[nH]c(=O)n([C@H]2C[C@H](O)[C@@H](CO)O2)cc1/C=C/Br [Brivudin] | > 250 | > 250 | > 250 | > 250 | > 250 | 0.016 | 10 | 2 | > 250 | 50 | – | – | – | – | – | – | –
3 | CCc1c(CNc2cc(C)cc(C)n2)c(CC)c(CNc2cc(C)cc(C)n2)c(CC)c1CNc1cc(C)cc(C)n1 [Compound 3b, 1,3,5-Tris[(4,6-dimethyl-pyridin-2-yl)aminomethyl]-2,4,6-triethyl-benzene] | – | – | – | – | – | – | – | – | – | – | 1.1 ± 0.6 (≈ 1.95 µM) | 8.6 ± 4.9 (≈ 15.2 µM) | 183 to 185 | 2.87 ± 0.23 (≈ 5.08 µM) | > 0.8 | > 0.8 | –
4 | NC(=O)c1ncn([C@@H]2O[C@H](CO)[C@@H](O)[C@H]2O)n1 [Ribavirin] | 250 | 150 | 250 | > 250 | 150 | 50 | 150 | 150 | > 250 | 150 | – | – | – | – | – | – | EC50 ([16]; H1N1, MTS, read-out: EC50 Influenza A H1N1 subtype MTS): 9 µM; EC50 ([16]; H1N1, visual CPE, read-out: EC50 Influenza A H1N1 subtype visual CPE score): 8.9 µM; EC50 ([17]; H3N2, MTS, read-out: EC50 Influenza A H3N2 subtype MTS): 8.9 µM; EC50 ([17]; H3N2, visual CPE, read-out: EC50 Influenza A H3N2 subtype visual CPE score): 8.9 µM
5 | Cc1cc(C)nc(NCc2c(C)c(CNc3cc(C)cc(C)n3)c(C)c(CNc3cc(C)cc(C)n3)c2C)c1 [Compound 3a, 1,3,5-Tris[(4,6-dimethyl-pyridin-2-yl)aminomethyl]-2,4,6-trimethyl-benzene] | – | – | – | – | – | – | – | – | – | – | 0.8 ± 0.6 (≈ 1.53 µM) | 1.3 ± 0.2 (≈ 2.49 µM) | 193 to 195 | 2.63 ± 0.08 (≈ 5.03 µM) | > 0.8 | > 0.8 | –
